In ChEMBL document CHEMBL1140269, “Amino-substituted heterocycles as isosteres of trans-cinnamides: design and synthesis of heterocyclic biaryl sulfides as potent antagonists of LFA-1/ICAM-1 binding” (Bioorg Med Chem Lett, 2005):
pIC50: −log10 of the molar value. Several values for one entry are separate records, joined by “and”; a condition that tells them apart may be missing. Equal values may be shown once.

Molecular target: Intercellular adhesion molecule (ICAM-1), Integrin alpha-L/beta-2 (Homo sapiens, UniProt P05107+P20701)
Assay: Inhibitory concentration against integrin LFA-1/ICAM-1 binding complex
Format: protein-complex assay

Sequence of Intercellular adhesion molecule (ICAM-1), Integrin alpha-L/beta-2 (P20701 whole entry): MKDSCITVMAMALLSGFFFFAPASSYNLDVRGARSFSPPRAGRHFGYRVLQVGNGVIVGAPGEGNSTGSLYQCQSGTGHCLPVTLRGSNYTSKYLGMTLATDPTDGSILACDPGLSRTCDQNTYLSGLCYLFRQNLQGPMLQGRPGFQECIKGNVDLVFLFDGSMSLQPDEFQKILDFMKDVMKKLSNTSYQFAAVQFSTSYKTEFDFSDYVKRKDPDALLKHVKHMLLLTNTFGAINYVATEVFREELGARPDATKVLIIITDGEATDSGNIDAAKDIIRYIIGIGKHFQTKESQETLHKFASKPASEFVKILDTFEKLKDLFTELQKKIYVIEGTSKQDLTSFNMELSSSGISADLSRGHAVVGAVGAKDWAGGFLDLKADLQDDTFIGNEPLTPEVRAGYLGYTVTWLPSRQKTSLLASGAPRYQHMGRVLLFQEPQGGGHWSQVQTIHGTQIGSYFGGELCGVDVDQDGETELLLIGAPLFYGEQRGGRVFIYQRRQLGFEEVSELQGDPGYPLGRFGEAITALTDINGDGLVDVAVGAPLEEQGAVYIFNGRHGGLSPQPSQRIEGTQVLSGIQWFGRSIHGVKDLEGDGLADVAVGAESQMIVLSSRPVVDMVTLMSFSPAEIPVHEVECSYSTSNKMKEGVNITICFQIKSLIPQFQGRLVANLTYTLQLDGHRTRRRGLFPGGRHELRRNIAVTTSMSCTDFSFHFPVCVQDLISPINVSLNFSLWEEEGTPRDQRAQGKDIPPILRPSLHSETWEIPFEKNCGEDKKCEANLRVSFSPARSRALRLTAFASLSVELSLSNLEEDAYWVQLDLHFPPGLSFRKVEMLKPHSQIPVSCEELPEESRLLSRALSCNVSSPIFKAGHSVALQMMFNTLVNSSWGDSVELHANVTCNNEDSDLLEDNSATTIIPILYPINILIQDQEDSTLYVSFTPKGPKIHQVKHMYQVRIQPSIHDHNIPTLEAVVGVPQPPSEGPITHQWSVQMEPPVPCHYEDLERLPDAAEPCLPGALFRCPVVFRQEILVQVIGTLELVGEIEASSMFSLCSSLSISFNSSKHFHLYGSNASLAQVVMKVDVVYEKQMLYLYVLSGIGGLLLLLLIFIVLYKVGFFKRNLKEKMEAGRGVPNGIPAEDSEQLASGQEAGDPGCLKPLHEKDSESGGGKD
Sequence of Intercellular adhesion molecule (ICAM-1), Integrin alpha-L/beta-2 (P05362 whole entry, further chain): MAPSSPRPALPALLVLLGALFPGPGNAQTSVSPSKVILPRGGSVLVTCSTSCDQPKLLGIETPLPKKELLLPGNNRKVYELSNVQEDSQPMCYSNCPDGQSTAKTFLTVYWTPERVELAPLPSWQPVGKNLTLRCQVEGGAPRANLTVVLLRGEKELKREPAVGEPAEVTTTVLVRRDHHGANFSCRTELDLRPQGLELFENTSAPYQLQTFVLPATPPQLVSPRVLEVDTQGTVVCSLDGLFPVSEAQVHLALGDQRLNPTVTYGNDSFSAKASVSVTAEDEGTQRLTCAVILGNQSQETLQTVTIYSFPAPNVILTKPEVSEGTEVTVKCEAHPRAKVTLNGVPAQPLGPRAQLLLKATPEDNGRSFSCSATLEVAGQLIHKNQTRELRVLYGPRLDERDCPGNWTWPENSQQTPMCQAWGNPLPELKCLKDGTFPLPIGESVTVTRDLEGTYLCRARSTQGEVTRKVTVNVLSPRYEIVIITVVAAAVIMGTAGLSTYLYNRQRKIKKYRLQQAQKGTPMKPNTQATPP
Sequence of Intercellular adhesion molecule (ICAM-1), Integrin alpha-L/beta-2 (P05107 whole entry): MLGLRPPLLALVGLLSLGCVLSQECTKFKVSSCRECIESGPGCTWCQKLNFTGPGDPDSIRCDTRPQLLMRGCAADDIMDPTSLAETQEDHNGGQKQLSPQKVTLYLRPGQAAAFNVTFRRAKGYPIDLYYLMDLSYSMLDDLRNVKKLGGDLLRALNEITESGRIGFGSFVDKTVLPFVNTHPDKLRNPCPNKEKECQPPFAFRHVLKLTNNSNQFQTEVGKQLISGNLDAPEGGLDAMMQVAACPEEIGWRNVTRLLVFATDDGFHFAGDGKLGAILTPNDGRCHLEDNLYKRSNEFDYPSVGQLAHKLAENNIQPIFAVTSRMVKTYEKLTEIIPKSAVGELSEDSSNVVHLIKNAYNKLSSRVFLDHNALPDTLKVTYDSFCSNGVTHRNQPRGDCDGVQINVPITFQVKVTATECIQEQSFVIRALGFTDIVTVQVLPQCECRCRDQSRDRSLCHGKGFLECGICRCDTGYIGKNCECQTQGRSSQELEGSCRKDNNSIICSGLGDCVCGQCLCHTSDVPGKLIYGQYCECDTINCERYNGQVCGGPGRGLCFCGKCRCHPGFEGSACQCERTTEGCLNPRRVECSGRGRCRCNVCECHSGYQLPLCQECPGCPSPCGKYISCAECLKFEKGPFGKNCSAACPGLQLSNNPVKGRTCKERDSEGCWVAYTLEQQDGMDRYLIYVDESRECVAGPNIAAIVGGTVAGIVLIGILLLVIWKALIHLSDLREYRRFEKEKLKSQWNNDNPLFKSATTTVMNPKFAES

pIC50	SMILES
4.98	COCCCNc1nc(-c2ccc(Sc3ccccc3C(C)C)c(C(F)(F)F)c2)cs1
6.64	CC(C)c1ccccc1Sc1ccc(-c2cc(N3CCC(CCO)CC3)ncn2)cc1C(F)(F)F
6.47	CC(C)c1ccccc1Sc1ccc(-c2cc(N3CCCC(C(N)=O)C3)ncn2)cc1C(F)(F)F (stereo not given)
6.78	CC(C)c1ccccc1Sc1ccc(-c2ccnc(N3CCN(C=O)CC3)c2)cc1C(F)(F)F
7.22	CC(=O)N1CCN(C(=O)/C=C/c2ccc(Sc3ccccc3C(C)C)c(C(F)(F)F)c2)CC1
6.91	COc1ccccc1Sc1ccc(-c2ccnc(N3CCCC(C(=O)O)C3)c2)cc1C(F)(F)F (stereo not given)
6.17	CC(C)c1ccccc1Sc1ccc(-c2cc(N3CCCC3CO)ncn2)cc1C(F)(F)F (stereo in doubt; 10w)
5.44	CC(C)c1ccccc1Sc1ccc(-c2coc(N3CCOCC3)n2)cc1C(F)(F)F
6.64	CC(C)c1ccccc1Sc1ccc(-c2cc(N3CCCC(CO)C3)ncn2)cc1C(F)(F)F (stereo not given)
6.21	CCN(CC)C(=O)C1CCCN(c2cc(-c3ccc(Sc4ccccc4C(C)C)c(C(F)(F)F)c3)ncn2)C1 (stereo not given)
7.21	CC(=O)N[C@@H]1CCN(c2cc(-c3ccc(Sc4ccccc4C(C)C)c(C(F)(F)F)c3)ccn2)C1
6.88	OCCC1CCN(c2cc(-c3ccc(Sc4ccc5c(c4)OCCO5)c(C(F)(F)F)c3)ccn2)CC1
4.82	CC(C)c1ccccc1Sc1ccc(-c2coc(N3CCCCC3)n2)cc1C(F)(F)F
6.92	COc1ccccc1Sc1ccc(-c2ccnc(N3CCN(C(C)=O)CC3)c2)cc1C(F)(F)F
6.33	CCOC(=O)N1CCN(c2cc(-c3ccc(Sc4ccccc4C(C)C)c(C(F)(F)F)c3)ncn2)CC1
6.64	CC(C)c1ccccc1Sc1ccc(-c2cc(N3CCC(O)CC3)ncn2)cc1C(F)(F)F
5.90	CC(C)c1ccccc1Sc1ccc(-c2cc(N3CCN(c4ccccn4)CC3)ncn2)cc1C(F)(F)F
6.83	O=C(O)[C@@H]1CCCN1c1cc(-c2ccc(Sc3ccc4c(c3)OCCO4)c(C(F)(F)F)c2)ccn1
6.73	COc1ccccc1Sc1ccc(-c2ccnc(N3CCN(C=O)CC3)c2)cc1C(F)(F)F
6.52	CCN(C(C)=O)C1CCN(c2cc(-c3ccc(Sc4ccccc4C(C)C)c(C(F)(F)F)c3)ncn2)C1 (stereo not given)
6.80	CC(C)c1ccccc1Sc1ccc(-c2ccnc(N3CCC(CCO)CC3)c2)cc1C(F)(F)F
6.05	CCCN1CCN(c2cc(-c3ccc(Sc4ccccc4OC)c(C(F)(F)F)c3)ccn2)CC1
7.14	CC(C)c1ccccc1Sc1ccc(-c2ccnc(N3CCC(C(N)=O)CC3)c2)cc1C(F)(F)F
6.26	CC(C)c1ccccc1Sc1ccc(-c2cc(N3CCC(NC(=O)OC(C)(C)C)C3)ncn2)cc1C(F)(F)F (stereo not given)
7.12	CC(C)c1ccccc1Sc1ccc(-c2ccnc(N3CCC(O)CC3)c2)cc1C(F)(F)F
7.06	COc1ccccc1Sc1ccc(-c2ccnc(N3CC[C@@H](N(C)C(C)=O)C3)c2)cc1C(F)(F)F

SMILES	pIC50
CC(C)c1ccccc1Sc1ccc(-c2ccnc(N3CCC[C@H]3C(=O)O)c2)cc1C(F)(F)F	7.59
CC(C)c1ccccc1Sc1ccc(-c2cc(NCCCn3ccnc3)ncn2)cc1C(F)(F)F	6.12
O=C(O)C1CCCN(c2cc(-c3ccc(Sc4ccc5c(c4)OCCO5)c(C(F)(F)F)c3)ccn2)C1 (stereo in doubt; 18L)	7.12
CC(C)c1ccccc1Sc1ccc(-c2cc(N3CC[C@@H](O)C3)ncn2)cc1C(F)(F)F	6.80
CC(=O)N[C@@H]1CCN(c2cc(-c3ccc(Sc4ccc5c(c4)OCCO5)c(C(F)(F)F)c3)ccn2)C1	6.95
CC(C)c1ccccc1Sc1ccc(-c2cc(N3CCC(c4nn[nH]n4)CC3)ncn2)cc1C(F)(F)F	6.97
O=C(O)C1CCCN(c2cc(-c3ccc(Sc4ccc5c(c4)OCCO5)c(C(F)(F)F)c3)ccn2)C1 (stereo in doubt)	7.52
CCN(C)c1cc(-c2ccc(Sc3ccccc3C(C)C)c(C(F)(F)F)c2)ncn1	6.17
CC(=O)N1CCN(c2cc(-c3ccc(Sc4ccc5c(c4)OCCO5)c(C(F)(F)F)c3)ccn2)CC1	6.88 and 7.22
